# Experimental data: patent publication US20240075123A1, “TREATMENT OF CANCERS AND INFECTIOUS DISEASES WITH KILLED INTACT BACTERIA” (priority 2022, published 2024)
# Tests used:
# hepatitis B virus (HBV) [1] = test: AAV-HBV mouse model of chronic HBV infection, second study; format: in vivo
# Procedure: (§1) The anti-hepatitis B virus (HBV) efficacy of Decoy was evaluated in two studies. A standard pre-clinical model was used in which the human HBV genome is inserted in an adeno-associated virus (AAV). This hybrid construct is able to infect mouse hepatocytes, producing a chronic HBV-like infection with many of the hallmarks of human HBV infection, including high levels of HBV replication in liver and blood and production of HBe and HBs antigen (HBeAg and HBsAg). AAV-HBV virus is administered to mice and then blood titers of HBV DNA are monitored. Significant and relatively stable blood levels of HBV appear within 28-31 days, at which point treatment is initiated. Indomethacin was administered with Decoy in many groups in the first study, but not in the second study.
# A group of untreated animals was included in the study. All treatment was well tolerated in AAV-HB V-infected mice.
# No inhibition of other infection hallmarks was observed by mIFN-alpha.
# hepatitis B virus (HBV) [2] = test: AAV-HBV mouse model of chronic HBV infection, first study; format: in vivo; details: for HBV replication (measured in blood): 5 weeks of dosing
# Procedure: as §1
# In the first study, Decoy (two different doses) was tested in combination with indomethacin and also in combination with the clinical standard of care, Entecavir (ETV). ETV and indomethacin were also tested as single agents (first study). […] In addition, ETV and mIFN-alpha were tested as single agents and in combination with Decoy (one dose).
# Decoy-induced body weight loss was mild, transient (6% for […] in first week of treatment) and tapered off after the first week of treatment (tolerance phenomenon) (FIG. 28).
# CT26 tumors = test: s.c. established CT26 tumors, Decoy with LDC; format: in vivo, mouse; details: Decoy alone 6.0×10^8; LDC 20 mg/kg i.p.; combination 3×10^8 Decoy + LDC
# Description: LDC alone produced a 57% ILS, which was statistically significant.
# [3] = test system: H22 hepatocellular carcinoma; details: mouse, in vivo
# Procedure: Indomethacin was tested at 10 μg/mL in drinking water, p.o. ad libitum daily for either 4 or 7 weeks. […] Treatment was started when the average tumor size was 123 mm^3.
# [4] = test system: A20 non-Hodgkin's lymphoma; test: s.c. A20 lymphoma, repeat and immune cell depletion; format: in vivo, mouse; details: 212 mm^3 tumors; two weeks of treatment
# Procedure: A group of untreated animals was used as the control. Treatment was started when the average tumor size was 212 mm^3. […] Combination with LDC produced 12% transient weight loss in the first week and 13.6% transient weight loss in the second week.
# Tumor implantation was carried out during the depletion regimen. […] Extra mice in each group were sacrificed at the time of initiation of treatment in order to verify immune cell depletion. […] The positive control included 2 groups of 6 mice each (one group received indomethacin), with 10/12 CRs/regressions (6/6 regressions without indomethacin and 4/6 regressions with added indomethacin). […] Thus, in addition to immune activation associated with innate and adaptive immune cells, LPS provides a key bridging activity between the innate and adaptive immune systems.
# [5] = test system: A20 non-Hodgkin's lymphoma; test: s.c. A20 lymphoma, Decoy dose and regimen with LDC; format: in vivo, mouse; details: LDC alone
# Procedure: A group of untreated animals was used as the control. LDC alone was also tested. Treatment was initiated on Day 13 when the average tumor size was 158 mm^3.
# [6] = test system: CT26.WT colorectal carcinoma; test: s.c. CT26.WT, Decoy (DB104) with cyclophosphamide (CTX); format: in vivo, mouse; details: vs untreated mice; Decoy single agent all doses (p<0.05); CTX both schedules
# Procedure: Mouse CT26.WT colorectal carcinoma cells were implanted (injected) into the right flank of BALB/c mice. Animals were randomized and treatments were initiated (Starting Day=SD) with a mean group tumor weight of 75 to 79 mg. […] A group of animals that received no treatment was used as the control.
# [7] = test system: Pan02 pancreatic carcinoma; test: Intrasplenic Pan02 pancreatic carcinoma, first experiment; format: in vivo; details: Decoy 5×10^7 and 2×10^8 per mouse; gemcitabine 50 mg/kg i.p.
# Description: Pancreatic tumor cells were surgically implanted (injected) into the spleen of C57BL/6 female mice on Day 0. […] A group of untreated animals was used as the control. All untreated animals developed large tumors in the spleen, liver and pancreas, requiring termination around Day 30.
# [8] = test system: Pan02 pancreatic carcinoma; test: Intrasplenic Pan02 pancreatic carcinoma, second experiment; format: in vivo, mouse; details: single agents
# Description: A group of animals administered Decoy vehicle was used as the control.
# [9] = test system: H22 hepatocellular carcinoma; test: s.c. H22 hepatocellular carcinoma, second study (E0776-U1802); format: in vivo
# Procedure: Indomethacin was tested at 10 μg/mL in drinking water, p.o. ad libitum daily for either 2 or 6 weeks. Anti-PD-1 was tested at 10 mg/kg, i.p. 2× per week for 2 weeks. Dosing was started when the average tumor size was 184 mm^3. A group of untreated animals was used as the control.
# H22 tumors = test: s.c. H22 HCC, plasma cytokine/chemokine induction and one-week treatment; format: in vivo, mouse
# Procedure: Female BALB/c mice with ˜200 mm^3 H22 tumors were randomized on Day-0 into 8 groups, each containing 3 sub-groups. All of the possible treatment approaches or combinations, including no treatment, were carried out. Mice from each of two subgroups from each group (5 mice per sub-group) were sacrificed 6 and 24 hours after no treatment, single, 2-way, or 3-way combination treatment. In the case of 2way and 3-way combination treatment, mice were sacrificed 6 and 24 hours after the first treatment instance of the second or third component of the combination. Plasma was prepared from each mouse and 32-plex ELISA-based cytokine/chemokine analysis was carried out. A third sub-group from each group (6 mice each) was treated for one week, with tumor volumes measured at randomization, once during the week and at the end of one week of treatment. Mice were sacrificed, then tumors were harvested and RNA was isolated. The 48 RNA samples were analyzed for expression of 770 genes involved in immune response pathways, using NanoString technology.
# Indomethacin induced expression of only 2/32 cytokines/chemokines, and only at 6 hours after initiation of treatment. […] There was no increase in weight loss in any of the combination groups, relative to single agent treatment. […]
# HIV-1 = test: Chronic HIV humanized hu-mouse model; format: in vivo; details: 5 weeks of treatment
# [10] = test system: H22 hepatocellular carcinoma; test: s.c. H22 hepatocellular carcinoma, first study (194 mm^3); format: in vivo; details: single agents; Decoy QD×2 weekly 6 weeks
# Procedure: Treatment was initiated when the average tumor size was 194 mm^3. […] Indomethacin was administered at 10 μg/mL, p.o., ad libitum daily in drinking water×6 weeks (alone and in combinations) and anti-PD-1 was administered at 10 mg/kg, i.p., BIW×2 weeks (alone and in combinations). A group of animals that received no treatment was used as the control in the study.
# Ramos NHL xenograft = test: s.c. human Ramos NHL xenograft in CB17/SCID mice; parameters: species or system mouse; details: in vivo
# Procedure: This was tested with the human Ramos NHL xenograft model in SCID mice, which lack B and T cells.
# Maximum transient weight loss for all non-indomethacin groups was generally in the 5% to 10% range. […] However, cure of at least some percentage of the mice is possible with the 3-way combination as a repeat produced 2/4 durable regressions in mice.
# The 5 tumor-regressed mice were re-challenged with fresh Ramos tumor cells (opposite flank from first challenge) on Day 74. Only 2/5 tumors grew out, compared to 5/5 with naïve mice challenged with the same fresh tumor cells (FIG. 26). […] This has been reported previously with a small number of other agents, and is considered to be very difficult to achieve. Tumor regression with immunological memory via the innate immune system alone is very rare in preclinical models, but consistent with a multiple TLR agonist mechanism.
# human PBMCs = test: Cytokine secretion by human PBMCs in vitro; format: cell-based; details: 48 hr, full titration peak/mean of triplicates; Study AB64785
# Procedure: TLR ligands such as E. coli LPS, ds E. coli DNA, E. coli peptidoglycan (PGN), Flagellin, R848, Polyinosinic-polycytidylic acid (poly I:C), and CpG oligonucleotide (ODN) were also assessed in these studies. Initial experiments were carried out with incubation for 24, 48 and 72 hours, as well as with and without immune cell activation with anti-CD3. […] In addition, maximal induction of secretion of most cytokines and chemokines occurred after 48 hours. […] Essentially all cytokines and chemokines participate in activation of innate and/or adaptive (including anti-tumor and anti-viral) immune pathways, but can also induce significant toxicity if expressed in the wrong place, at the wrong time, for too long, or at an inappropriately high level.
# healthy human volunteers = details: purified LPS, over 1,000 healthy human volunteers; cited from earlier work
compound,measurement,setting,value
"C=C1[C@H](CO)[C@@H](O)C[C@@H]1n1cnc2c(=O)[nH]c(N)nc21 [ETV, Entecavir]",plasma HBV DNA levels,"hepatitis B virus (HBV) [1]; Day 31 to Day 151, no indomethacin",reduced plasma HBV DNA levels
same,HBV DNA and HBeAg levels in mouse liver at termination,"hepatitis B virus (HBV) [1]; mouse, in vivo",not
same,plasma HBsAg and HBeAg levels,"hepatitis B virus (HBV) [1]; mouse, in vivo",not
same,HBV replication (measured in blood),hepatitis B virus (HBV) [2],significantly inhibited HBV replication
same,HBeAg and HBsAg in blood,"hepatitis B virus (HBV) [2]; mouse, in vivo",not to reduce or inhibit production of HBeAg or HBsAg
same,inhibition of HBcAg in the liver,"hepatitis B virus (HBV) [2]; mouse, in vivo",not
same,reduction of HBV in the liver,"hepatitis B virus (HBV) [2]; mouse, in vivo",not
"O=P1(N(CCCl)CCCl)NCCCO1 (stereo not drawn) [LDC, cyclophosphamide]",increased lifespan (% ILS),CT26 tumors,57%
same,single agent anti-tumor activity,[3],"weak, but statistically significant"
same,regressions,[4],without producing any regressions
same,tumor regression (group of 4),[5],one
same,inhibition of tumor growth,[6],significant tumor growth inhibition
Nc1ccn([C@@H]2O[C@H](CO)[C@@H](O)C2(F)F)c(=O)n1 [gemcitabine],median survival time,[7],significant increase in median survival
same,single agent anti-tumor activity,[3],"weak, but statistically significant"
same,weight loss,[3],20%
same,survival,[8],increased survival
COc1ccc2c(c1)c(CC(=O)O)c(C)n2C(=O)c1ccc(Cl)cc1 [indomethacin],regressions,[9]; 6 week indomethacin treatment,did not see any regressions
same,regressions (6 animals per group),"[9]; indomethacin 2 weeks, indomethacin 2 weeks+anti-PD-1, Decoy QD×2 6 weeks+indomethacin 6 weeks",one
same,lifespan (ILS),"[9]; single agents, indomethacin 2 weeks and 6 weeks",statistically significant increase in lifespan
same,Transient weight loss,[3],not seen
same,HBV replication (measured in blood),hepatitis B virus (HBV) [2],did not inhibit HBV replication
same,survival,[8],did not increase survival significantly
same,plasma cytokines/chemokines induced (of 32),H22 tumors; 6 or 24 hours after treatment,2/32
same,Tumor growth inhibition relative to no treatment,H22 tumors; after one week of treatment,17%
same,HIV viral load in plasma,HIV-1,inhibited HIV viral load
same,increase in life-span (% ILS),[10],30%
same,single agent anti-tumor activity,Ramos NHL xenograft,did not produce single agent activity
Polyinosinic-polycytidylic acid [Poly(I:C)],GM-CSF secretion by human PBMCs,human PBMCs,0 pg/mL
same,IFNγ secretion by human PBMCs,human PBMCs,103 pg/mL
same,IL-1β secretion by human PBMCs,human PBMCs,22 pg/mL
same,IL-6 secretion by human PBMCs,human PBMCs,129 pg/mL
same,IL-8 secretion by human PBMCs,human PBMCs,"1,452 pg/mL"
same,IL-10 secretion by human PBMCs,human PBMCs,8 pg/mL
same,IL-12p70 secretion by human PBMCs,human PBMCs,18 pg/mL
same,TNFα secretion by human PBMCs,human PBMCs,208 pg/mL
lipopolysaccharide [LPS],GM-CSF secretion by human PBMCs,human PBMCs,175 pg/mL
same,IFNγ secretion by human PBMCs,human PBMCs,"29,416 pg/mL"
same,IL-1β secretion by human PBMCs,human PBMCs,"4,631 pg/mL"
same,IL-6 secretion by human PBMCs,human PBMCs,"54,174 pg/mL"
same,IL-8 secretion by human PBMCs,human PBMCs,"143,459 pg/mL"
same,IL-10 secretion by human PBMCs,human PBMCs,"3,542 pg/mL"
same,IL-12p70 secretion by human PBMCs,human PBMCs,109 pg/mL
same,TNFα secretion by human PBMCs,human PBMCs,"24,944 pg/mL"
same,highest dose determined to be well-tolerated after IV administration,healthy human volunteers,0.004 µg/kg
rituximab,single agent anti-tumor activity,Ramos NHL xenograft,inhibited or delayed
